For data set [1], the system named is SARS-CoV-2. The experiment in a line: microbe, parasite or virus in culture. As to conditions: for EC50: Severe acute respiratory syndrome coronavirus 2, Vero, 72 h.
The test system of data set [2] is Vero E6-GFP cells. To be noted: African green monkey, 2 µM.
The target of data set [3] is SARS-CoV-2 M^pro (Severe acute respiratory syndrome coronavirus 2, UniProt P0DTD1). The experiment in a line: biochemical. The class given is biochemical. As to conditions: for IC50: M^pro SARS-COV-2 IC50.
The target in data set [4] is MERS-CoV M^pro (Middle East respiratory syndrome-related coronavirus, UniProt K9N7C7). The experiment in a line: biochemical. As to conditions: for inhibition at 30 µM: read-out: % of inhibition of the M^pro at 30 μM (MERS).
Chain of MERS-CoV M^pro (K9N7C7 3248-3553 limits assumed): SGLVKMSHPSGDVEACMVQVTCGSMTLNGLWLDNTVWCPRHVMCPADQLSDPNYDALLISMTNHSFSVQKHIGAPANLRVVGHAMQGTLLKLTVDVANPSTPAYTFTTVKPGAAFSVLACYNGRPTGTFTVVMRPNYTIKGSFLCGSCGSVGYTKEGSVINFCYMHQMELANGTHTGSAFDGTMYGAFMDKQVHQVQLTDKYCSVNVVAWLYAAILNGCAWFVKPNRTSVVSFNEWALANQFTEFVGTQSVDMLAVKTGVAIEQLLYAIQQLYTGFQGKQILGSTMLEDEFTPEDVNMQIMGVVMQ

Marks after values point to notes of the source that are not given here.

Take `O=C(NCCc1ccccc1)C(=O)[C@H](C[C@@H]1CCNC1=O)NC(=O)[C@@H]1CCCN1C(=O)OCc1ccccc1` [9a, (S)-benzyl2-((S)-3,4-dioxo-1-((S)-2-oxopyrrolidin-3-yl)-4-(phenethylamino)butan-2ylcarbamoyl)pyrrolidine-1-carboxylate]: in data set [1], the “EC50 + CP100356 (2 μM)” value was “did not change”. Besides, the “Residual cell viability at the highest concentration tested” value (shortened to “Residual cell viability”) in data set [2] is >100 (100%) ^e.

As for `O=C(NCCc1ccccc1F)C(=O)[C@H](C[C@@H]1CCNC1=O)NC(=O)[C@@H]1CCCN1C(=O)OCc1ccccc1` [9b, (S)-benzyl2-((S)-4-(2-fluorophenethylamino)-3,4-dioxo-1-((S)-2-oxopyrrolidin-3-yl)butan-2-ylcarbamoyl)pyrrolidine-1-carboxylate], in data set [3], the “M^pro SARS-COV-2 IC50” value was “submicromolar range”.

For the compound `COc1ccccc1CCNC(=O)C(=O)[C@H](C[C@@H]1CCNC1=O)NC(=O)[C@@H]1CCCN1C(=O)OCc1ccccc1` [9c, (S)-benzyl2-((S)-4-(2-methoxyphenethylamino)-3,4-dioxo-1-((S)-2-oxopyrrolidin-3-yl)butan-2-ylcarbamoyl)pyrrolidine-1-carboxylate], the “M^pro SARS-COV-2 IC50” value in data set [3] is on record as “submicromolar range”.

Take `O=C(NCc1ccccc1)C(=O)[C@H](C[C@@H]1CCNC1=O)NC(=O)[C@@H]1CCCN1C(=O)COc1ccc(Cl)cc1Cl` [9d, (S)–N-((S)-4-(benzylamino)-3,4-dioxo-1-((S)-2-oxopyrrolidin-3-yl)butan-2-yl)-1-(2-(2,4-dichlorophenoxy)acetyl)pyrrolidine-2-carboxamide]: the “Residual cell viability” value in data set [2] is listed as >100 (100%) ^e.

With `O=C(NCCc1ccccc1)C(=O)[C@H](C[C@@H]1CCNC1=O)NC(=O)[C@@H]1CCCN1C(=O)COc1ccc(Cl)cc1Cl` [9e, (S)-1-(2-(2,4-dichlorophenoxy)acetyl)-N-((S)-3,4-dioxo-1-((S)-2-oxopyrrolidin-3-yl)-4-(phenethylamino)butan-2-yl)pyrrolidine-2-carboxamide], the “Residual cell viability” value in data set [2] is on record as >100 (100%) ^e.

For `COc1ccc(CNC(=O)C(=O)[C@H](C[C@@H]2CCNC2=O)NC(=O)[C@@H]2CCCN2C(=O)COc2ccc(Cl)cc2Cl)c(OC)c1` [9f, (S)-1-(2-(2,4-dichlorophenoxy)acetyl)-N-((S)-4-(2,4-dimethoxybenzylamino)-3,4-dioxo-1-((S)-2-oxopyrrolidin-3-yl)butan-2-yl)pyrrolidine-2-carboxamide], inhibition in data set [3] was half-maximal at 1.93 ± 0.16 µM (IC50). Also, in data set [4], the IC50 was over 30 µM and the inhibition at 30 µM turned out to be 59%. For the same compound, the EC50 in data set [1] was over 100 µM.

Turning to `O=C(NCc1ccccc1C(F)(F)F)C(=O)[C@H](C[C@@H]1CCNC1=O)NC(=O)[C@@H]1CCCN1C(=O)COc1ccc(Cl)cc1Cl` [9h, (S)-1-(2-(2,4-dichlorophenoxy)acetyl)-N-((S)-3,4-dioxo-1-((S)-2-oxopyrrolidin-3-yl)-4-(2-(trifluoromethyl)benzylamino)butan-2-yl)pyrrolidine-2-carboxamide], the IC50 in data set [3] and in data set [4] was over 30 µM throughout. The results for the inhibition at 30 µM in data set [3] (read-out: % of inhibition of the M^pro at 30 μM (SARS-CoV-2)) and in data set [4] were 57% and 73%, respectively. Also, in data set [1], the half-maximal effective concentration (EC50) was over 100 µM.

The term IC50 denotes the concentration that gives 50% inhibition. The term inhibition denotes the relative decrease from the control value, in per cent. By EC50 is commonly meant the concentration that produces a half-maximal response.

The values above are taken from article PMC9575579 (European Journal of Medicinal Chemistry, 2022).
